# Experimental data from the supplement of paper PMC10307832.
# Compound: Cn1c(=O)n(-c2ccc(C(C)(C)C#N)cc2)c2c3cc(-c4cnc5ccccc5c4)ccc3ncc21 [Dactolisib] + CS(=O)(=O)CCNCc1ccc(-c2ccc3ncnc(Nc4ccc(OCc5cccc(F)c5)c(Cl)c4)c3c2)o1 [Lapatinib] (partner 2 µM)
# Test: relative viability (nuclei count vs DMSO), 5 days (fraction); higher = more cells survive
# Details: first compound 0.002 µM
# Procedure, shortened: (§1)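 Relative viability divides the nuclei count in treated wells by that in vehicle wells. Lung cancer cell lines were seeded in 1536-well plates, dosed by pin tool the next day, and fixed and stained after 5 days in one step with final 0.05% Triton X-100, 1% formaldehyde and 1 ug/ml Hoechst. Dosing was a single drug or a fixed anchor-drug dose plus five library-drug doses (not always all listed) in √10 steps, and values are medians of duplicate plates imaged at 4×.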
row,Cell Line,relative viability
1,NCI-H727,0.753
2,NCI-H1650,0.847
3,EBC-1,0.237
4,NCI-H1703,0.688
5,NCI-H1993,0.784
6,SK-LU-1,0.857
7,NCI-H838,0.983
8,NCI-H520,0.888
9,NCI-H2126,0.826
10,EMC-BAC-2,0.921

# Same assay, conditions: first compound 0.006325 µM
row,Cell Line,relative viability
1,NCI-H727,0.648
2,NCI-H1650,0.701
3,EBC-1,0.203
4,NCI-H1703,0.796
5,NCI-H1993,0.714
6,SK-LU-1,0.782
7,NCI-H838,0.717
8,NCI-H520,0.753
9,NCI-H2126,0.799
10,EMC-BAC-2,0.856

# Same assay, conditions: first compound 0.02 µM
row,Cell Line,relative viability
1,NCI-H727,0.994
2,NCI-H1650,0.73
3,EBC-1,0.241
4,NCI-H1703,0.716
5,NCI-H1993,0.843
6,SK-LU-1,0.728
7,NCI-H838,0.463
8,NCI-H520,0.655
9,NCI-H2126,0.745
10,EMC-BAC-2,0.889

# Same assay, conditions: first compound 0.06325 µM
row,Cell Line,relative viability
1,NCI-H727,0.363
2,NCI-H1650,0.449
3,EBC-1,0.19
4,NCI-H1703,0.379
5,NCI-H1993,0.601
6,SK-LU-1,0.509
7,NCI-H838,0.249
8,NCI-H520,0.221
9,NCI-H2126,0.641
10,EMC-BAC-2,0.703

# Same assay, conditions: first compound 0.2 µM
row,Cell Line,relative viability
1,NCI-H727,0.345
2,NCI-H1650,0.431
3,EBC-1,0.182
4,NCI-H1703,0.314
5,NCI-H1993,0.651
6,SK-LU-1,0.27
7,NCI-H838,0.224
8,NCI-H520,0.128
9,NCI-H2126,0.476
10,EMC-BAC-2,0.604

# Compound: C1CCC(CC1)N(CCNCCC2=C3C(=C(C=C2)O)NC(=O)CO3)C(=O)CCNCCC4=CC(=C(C=C4)Cl)Cl [AZ505] + CS(=O)(=O)N1CCN(Cc2cc3nc(-c4cccc5[nH]ncc45)nc(N4CCOCC4)c3s2)CC1 [Pictilisib] (partner 1 µM)
# Test: as above
# Details: first compound 0.08 µM
# Procedure, shortened: as §1
row,Cell Line,relative viability
1,NCI-H727,0.327
2,NCI-H1650,0.488
3,EBC-1,0.374
4,NCI-H1703,0.242
5,NCI-H1993,0.679
6,SK-LU-1,0.333
7,NCI-H838,0.342
8,LCLC-103H,0.627
9,NCI-H520,0.264
10,NCI-H2126,0.448
11,EMC-BAC-2,0.485
12,ChaGo-K-1,0.824
13,NCI-H441,0.427

# Same assay, conditions: first compound 0.253 µM
row,Cell Line,relative viability
1,NCI-H727,0.313
2,NCI-H1650,0.594
3,EBC-1,0.375
4,NCI-H1703,0.235
5,NCI-H1993,0.798
6,SK-LU-1,0.419
7,NCI-H838,0.404
8,LCLC-103H,0.532
9,NCI-H520,0.273
10,NCI-H2126,0.462
11,EMC-BAC-2,0.523
12,ChaGo-K-1,0.58
13,NCI-H441,0.548

# Same assay, conditions: first compound 0.8 µM
row,Cell Line,relative viability
1,NCI-H727,0.468
2,NCI-H1650,0.586
3,EBC-1,0.345
4,NCI-H1703,0.231
5,NCI-H1993,0.807
6,SK-LU-1,0.332
7,NCI-H838,0.493
8,LCLC-103H,0.555
9,NCI-H520,0.284
10,NCI-H2126,0.535
11,EMC-BAC-2,0.505
12,ChaGo-K-1,0.691
13,NCI-H441,0.458

# Same assay, conditions: first compound 2.53 µM
row,Cell Line,relative viability
1,NCI-H727,0.274
2,NCI-H1650,0.492
3,EBC-1,0.354
4,NCI-H1703,0.256
5,NCI-H1993,0.768
6,SK-LU-1,0.323
7,NCI-H838,0.344
8,LCLC-103H,0.657
9,NCI-H520,0.272
10,NCI-H2126,0.452
11,EMC-BAC-2,0.471
12,ChaGo-K-1,0.819
13,NCI-H441,0.546

# Same assay, conditions: first compound 8 µM
row,Cell Line,relative viability
1,NCI-H727,0.47
2,NCI-H1650,0.502
3,EBC-1,0.328
4,NCI-H1703,0.25
5,NCI-H1993,0.776
6,SK-LU-1,0.435
7,NCI-H838,0.411
8,LCLC-103H,0.6
9,NCI-H520,0.259
10,NCI-H2126,0.544
11,EMC-BAC-2,0.507
12,ChaGo-K-1,0.901
13,NCI-H441,0.521

# Compound: C1CCC(CC1)N(CCNCCC2=C3C(=C(C=C2)O)NC(=O)CO3)C(=O)CCNCCC4=CC(=C(C=C4)Cl)Cl [AZ505]
# Test: relative viability (nuclei count vs DMSO), 5 days (fraction); higher = more cells survive
# Details: 0.08 µM
# Procedure, shortened: (§2)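 Viability was defined as treated-well nuclei divided by vehicle-well nuclei, with the median taken over replicate plates. Cells from lung cancer lines sat overnight at 37 °C in 1536-well plates, received five √10-spaced library-drug doses by pinning on vehicle-anchored plates, and grew 5 days without medium change before one-step fixation, permeabilisation and Hoechst staining, 4× imaging and MetaXpress nuclear counts. Only plates with control CV under 25% and at least one doubling were kept.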
row,Cell Line,relative viability
1,NCI-H2342,1.03
2,NCI-H1623,0.894
3,NCI-H727,0.836
4,NCI-H1650,0.828
5,EBC-1,0.967
6,NCI-H1703,0.733
7,NCI-H1993,0.871
8,SK-LU-1,0.634
9,NCI-H838,0.915
10,LCLC-103H,0.989
11,NCI-H520,0.92
12,NCI-H2126,0.993
13,EMC-BAC-2,0.948
14,NCI-H1648,0.734
15,ChaGo-K-1,0.959
16,NCI-H522,0.922
17,SW 900,0.857
18,NCI-H441,0.865

# Same assay, conditions: 0.253 µM
row,Cell Line,relative viability
1,NCI-H2342,1.08
2,NCI-H1623,1.03
3,NCI-H727,0.879
4,NCI-H1650,0.973
5,EBC-1,0.929
6,NCI-H1703,0.853
7,NCI-H1993,0.888
8,SK-LU-1,0.683
9,NCI-H838,0.976
10,LCLC-103H,0.903
11,NCI-H520,1.07
12,NCI-H2126,0.945
13,EMC-BAC-2,0.789
14,NCI-H1648,1.01
15,ChaGo-K-1,1
16,NCI-H522,0.961
17,SW 900,0.856
18,NCI-H441,1.09

# Same assay, conditions: 0.8 µM
row,Cell Line,relative viability
1,NCI-H2342,1.17
2,NCI-H1623,0.984
3,NCI-H727,0.864
4,NCI-H1650,0.882
5,EBC-1,1.03
6,NCI-H1703,1.04
7,NCI-H1993,0.903
8,SK-LU-1,0.65
9,NCI-H838,0.948
10,LCLC-103H,0.925
11,NCI-H520,0.86
12,NCI-H2126,0.971
13,EMC-BAC-2,0.923
14,NCI-H1648,0.883
15,ChaGo-K-1,1.05
16,NCI-H522,0.981
17,SW 900,0.818
18,NCI-H441,1.07

# Same assay, conditions: 2.53 µM
row,Cell Line,relative viability
1,NCI-H2342,1.07
2,NCI-H1623,0.937
3,NCI-H727,0.654
4,NCI-H1650,0.926
5,EBC-1,1.01
6,NCI-H1703,1.11
7,NCI-H1993,1.02
8,SK-LU-1,0.679
9,NCI-H838,0.942
10,LCLC-103H,1.02
11,NCI-H520,1.08
12,NCI-H2126,0.984
13,EMC-BAC-2,1.03
14,NCI-H1648,1.01
15,ChaGo-K-1,1.01
16,NCI-H522,1.05
17,SW 900,0.963
18,NCI-H441,0.997

# Same assay, conditions: 8 µM
row,Cell Line,relative viability
1,NCI-H2342,1.08
2,NCI-H1623,1.04
3,NCI-H727,1.11
4,NCI-H1650,1.04
5,EBC-1,0.924
6,NCI-H1703,1.03
7,NCI-H1993,1.09
8,SK-LU-1,0.797
9,NCI-H838,0.998
10,LCLC-103H,0.896
11,NCI-H520,1.04
12,NCI-H2126,0.988
13,EMC-BAC-2,0.987
14,NCI-H1648,1.15
15,ChaGo-K-1,1.12
16,NCI-H522,1
17,SW 900,0.97
18,NCI-H441,1.24

# Compound: Cn1c(=O)n(-c2ccc(C(C)(C)C#N)cc2)c2c3cc(-c4cnc5ccccc5c4)ccc3ncc21 [Dactolisib]
# Test: as above
# Details: 0.002 µM
# Procedure, shortened: as §2
row,Cell Line,relative viability
1,NCI-H2342,0.997
2,NCI-H1623,1.14
3,NCI-H727,0.839
4,NCI-H1650,0.943
5,EBC-1,1.05
6,NCI-H1993,1.01
7,SK-LU-1,0.879
8,NCI-H838,0.978
9,LCLC-103H,1.03
10,NCI-H520,1.01
11,NCI-H2126,1.09
12,EMC-BAC-2,1.07
13,NCI-H1648,0.842
14,ChaGo-K-1,0.963
15,NCI-H522,0.971
16,SW 900,0.913
17,NCI-H441,1.28

# Same assay, conditions: 0.006325 µM
row,Cell Line,relative viability
1,NCI-H2342,0.999
2,NCI-H1623,0.968
3,NCI-H727,1.02
4,NCI-H1650,0.92
5,EBC-1,0.883
6,NCI-H1703,0.768
7,NCI-H1993,0.702
8,SK-LU-1,0.995
9,NCI-H838,0.775
10,LCLC-103H,0.95
11,NCI-H520,0.777
12,NCI-H2126,0.936
13,EMC-BAC-2,0.924
14,NCI-H1648,0.869
15,ChaGo-K-1,0.964
16,NCI-H522,0.932
17,SW 900,0.769
18,NCI-H441,1.02

# Same assay, conditions: 0.02 µM
row,Cell Line,relative viability
1,NCI-H2342,0.862
2,NCI-H1623,0.918
3,NCI-H727,0.9
4,NCI-H1650,0.867
5,EBC-1,0.724
6,NCI-H1703,0.784
7,NCI-H1993,0.663
8,SK-LU-1,0.88
9,NCI-H838,0.659
10,LCLC-103H,0.964
11,NCI-H520,0.764
12,NCI-H2126,0.892
13,EMC-BAC-2,0.88
14,NCI-H1648,1.01
15,ChaGo-K-1,0.945
16,NCI-H522,0.967
17,SW 900,0.714
18,NCI-H441,0.925

# Same assay, conditions: 0.06325 µM
row,Cell Line,relative viability
1,NCI-H2342,0.843
2,NCI-H1623,0.531
3,NCI-H727,0.487
4,NCI-H1650,0.468
5,EBC-1,0.236
6,NCI-H1703,0.479
7,NCI-H1993,0.59
8,SK-LU-1,0.502
9,NCI-H838,0.347
10,LCLC-103H,0.785
11,NCI-H520,0.243
12,NCI-H2126,0.638
13,EMC-BAC-2,0.636
14,NCI-H1648,0.451
15,ChaGo-K-1,0.909
16,NCI-H522,0.895
17,SW 900,0.329
18,NCI-H441,0.48

# Same assay, conditions: 0.2 µM
row,Cell Line,relative viability
1,NCI-H2342,0.591
2,NCI-H1623,0.402
3,NCI-H727,0.414
4,NCI-H1650,0.41
5,EBC-1,0.244
6,NCI-H1703,0.405
7,NCI-H1993,0.603
8,SK-LU-1,0.359
9,NCI-H838,0.296
10,LCLC-103H,0.624
11,NCI-H520,0.2
12,NCI-H2126,0.488
13,EMC-BAC-2,0.494
14,NCI-H1648,0.319
15,ChaGo-K-1,0.868
16,NCI-H522,0.568
17,SW 900,0.346
18,NCI-H441,0.298
